Experimental data from patent US20100267653A1, “USE OF COUMARIN DERIVATIVES IN ANTIFUNGAL THERAPY” (priority 2006, published 2010).
In brackets after ≈: the same amount, converted by molar mass. Where two headings read alike, the source gives them in different places.

How the values were obtained:
[1] = tested on: Trichophyton rubrum NCPF118; experiment: Antifungal activity, growth in RPMI 1640 microtitre plates (OD 530 nm); format: cell-based; details: for MIC: T. rubrum NCPF118, 30° C.
Method: (§1) Esculin, esculetin and a range of other coumarins and their glycosides were tested for their antifungal activity against Trichophyton rubrum, Trichophyton interdigitale and other fungi isolated from nails and skin.
(§2) Suspensions of fungal conidia and hyphal fragments for use as experimental inocula were prepared by adding 3 ml of demineralised water or 0.15% (w/v) NaCl solution to a slope culture which had been incubated at 30° C. for 7 to 10 days and probing the surface of the culture with a sterile plastic transfer pipette. […] The resulting suspension was filtered through a double layer of sterile surgical gauze; if necessary a further volume of up to 3 ml of water or 0.15% (w/v) NaCl was used to wash through any spores or small hyphal fragments held on the gauze. 100 μl of this suspension, adjusted to an optical density between 0.14 and 0.16 at 530 nm (corresponding to between 0.5 and 1.5×10^6 propagules/ml) was added to the wells in sterile 96-well microtitre plates to which 100 μl of 2× strength RPMI 1640 media (a chemically-defined nutrient medium widely used in tissue culture and antimicrobial resistance testing) had been added. Inocula prepared in this way were used in all of the experiments; additionally, for some experiments with esculin shown in FIG. 4, the results obtained with standard inocula prepared as described above (labelled “young inoculum” in FIG. 4), were compared with the results obtained in similar tests using inocula which had been cultured for up to 9 weeks (labelled “old inoculum” in FIG. 4). As appropriate, coumarins were pre-dissolved in 2× strength RPMI 1640 medium before addition to the plate. Experiments with the yeasts Candida albicans and Candida krusei were set up in the same way, but in these cases, filtration of the cell suspensions was not necessary.
(§3) Solubilisation of other compounds required the presence of DMSO. Esculetin, daphnetin, 4-(trifluoromethyl) coumarin, 4-(trifluoromethyl)-coumarin-7-0-glucose and cichoriin were dissolved in DMSO at 1000× final test concentration; when this solution was diluted to the concentration used in the experiments using 2× strength RPMI 1640 medium, the final concentration of DMSO was […] which alone had no effect on the fungi when tested in several experiments performed. Fraxetin required a final concentration of 0.2% DMSO, but this too had no effect on the growth of the fungi when tested in separate experiments.
(§4) A series of dilutions of the coumarin solutions was prepared on the plates by mixing known volumes of the coumarin stock solutions in the wells with fresh volumes of 2×RPMI 1640 medium. Each concentration of coumarin was studied in triplicate wells. For observations on Trichophyton rubrum NCPF118 and Trichophyton interdigitale NCPF335, obtained from the National Collection of Pathogenic Fungi (Bristol), the plates were incubated in a Bio-Tek Powerwave XS scanning plate reader at 30° C., and fungal growth within the plates was measured at intervals of 2 h for up to 72 h or 96 h as specified in the text by recording the absorbance (optical density) of the wells at 530 nm. Observations on Candida albicans and Candida krusei were made in the same way, but the incubation temperature was 37° C. and the incubation time was 48 h. For observations with clinical fungal isolates obtained from the collection of M. Monod (Lausanne, Switzerland), the procedure was as described above except that in response to the relatively slow growth of these isolates, incubations were performed in a static incubator at 30° C. and the plates were read manually in a Bio-Tek Powerwave XS scanning plate reader at intervals of 24 h for up to 168 h, being returned to the incubator after each reading. Malassezia furfur grows poorly in the system described above, so for this organism, a standard inoculum of M. furfur was mixed with an equal volume of a solution of esculetin and the mixture was plated onto Petri dishes containing Sabouraud's agar medium. […]

[2] = Solubility of coumarins in RPMI 1640 media and DMSO; format: physicochemical; details: for solubility: aqueous buffer, kinetic from dmso stock, pH = 7.0, in presence of the DMSO concentration of the same table line
Method: The solubility of the aglycones was compared to the respective glycoside in RPMI 1640 media and in DMSO.
as §3

[3] = tested on: Trichophyton interdigitale NCPF335; experiment: Antifungal activity, growth in RPMI 1640 microtitre plates (OD 530 nm); format: cell-based; details: Trichophyton interdigitale; T. interdigitale NCPF335, 30° C.
Method: as §1, §2, §3, §4

[4] = tested on: T. soudanense; experiment: Sensitivity of clinical isolates of dermatophytes to esculetin; format: cell-based, Trichophyton soudanense; parameters: key to Sensitive (S) or Resistant (R): Sensitive (S); Resistant (R); details: 2 strains tested
Method: as §1
(§5) Suspensions of fungal conidia and hyphal fragments for use as experimental inocula were prepared by adding 3 ml of demineralised water or 0.15% (w/v) NaCl solution to a slope culture which had been incubated at 30° C. for 7 to 10 days and probing the surface of the culture with a sterile plastic transfer pipette. […] The resulting suspension was filtered through a double layer of sterile surgical gauze; if necessary a further volume of up to 3 ml of water or 0.15% (w/v) NaCl was used to wash through any spores or small hyphal fragments held on the gauze. […]
(§6) A series of dilutions of the coumarin solutions was prepared on the plates by mixing known volumes of the coumarin stock solutions in the wells with fresh volumes of 2×RPMI 1640 medium. […] For observations on Trichophyton rubrum NCPF118 and Trichophyton interdigitale NCPF335, obtained from the National Collection of Pathogenic Fungi (Bristol), the plates were incubated in a Bio-Tek Powerwave XS scanning plate reader at 30° C., and fungal growth within the plates was measured at intervals of 2 h for up to 72 h or 96 h as specified in the text by recording the absorbance (optical density) of the wells at 530 nm. […]

[5] = tested on: M. gypseum; experiment: as above; format: cell-based, Microsporum gypseum; parameters: key to Sensitive (S) or Resistant (R): Sensitive (S); Resistant (R); details: clinical isolate, 1 strain tested
Method: as §1, §5, §6

[6] = tested on: T. mentagrophytes var interdigitale strain 386; experiment: as above; format: cell-based, Trichophyton mentagrophytes var. interdigitale; parameters: key to Sensitive (S) or Resistant (R): Sensitive (S); Resistant (R); details: strain 386, 1 strain tested
Method: as §1, §5, §6

[7] = tested on: T. mentagrophytes; experiment: as above; format: cell-based, Trichophyton mentagrophytes; parameters: key to Sensitive (S) or Resistant (R): Sensitive (S); Resistant (R); details: 27 strains tested
Method: as §1, §5, §6

[8] = tested on: Microsporum canis; experiment: as above; format: cell-based; parameters: key to Sensitive (S) or Resistant (R): Sensitive (S); Resistant (R); details: 4 strains tested
Method: as §1
(§7) Suspensions of fungal conidia and hyphal fragments for use as experimental inocula were prepared by adding 3 ml of demineralised water or 0.15% (w/v) NaCl solution to a slope culture which had been incubated at 30° C. for 7 to 10 days and probing the surface of the culture with a sterile plastic transfer pipette. […] The resulting suspension was filtered through a double layer of sterile surgical gauze; if necessary a further volume of up to 3 ml of water or 0.15% (w/v) NaCl was used to wash through any spores or small hyphal fragments held on the gauze. 100 μl of this suspension, adjusted to an optical density between 0.14 and 0.16 at 530 nm (corresponding to between 0.5 and 1.5×10^6 propagules/ml) was added to the wells in sterile 96-well microtitre plates to which 100 μl of 2× strength RPMI 1640 media (a chemically-defined nutrient medium widely used in tissue culture and antimicrobial resistance testing) had been added. Inocula prepared in this way were used in all of the experiments; additionally, for some experiments with esculin shown in FIG. 4, the results obtained with standard inocula prepared as described above (labelled “young inoculum” in FIG. 4), were compared with the results obtained in similar tests using inocula which had been cultured for up to 9 weeks (labelled “old inoculum” in FIG. 4). As appropriate, coumarins were pre-dissolved in 2× strength RPMI 1640 medium before addition to the plate. […]
as §4, with “Each concentration of coumarin was studied in triplicate wells.” left out, “Observations on Candida albicans and Candida krusei were made in the same way, but the incubation temperature was 37° C. and the incubation time was 48 h.” left out, “reading.” for “reading. Malassezia furfur grows poorly in the system described above, so for this organism, a standard inoculum of M. furfur was mixed with an equal volume of a solution of esculetin and the mixture was plated onto Petri dishes containing Sabouraud's agar medium.”

[9] = tested on: Trichophyton rubrum; experiment: as above; format: cell-based; parameters: key to Sensitive (S) or Resistant (R): Sensitive (S); Resistant (R); details: 48 strains tested
Method: as §1, §7
as §4, with “Each concentration of coumarin was studied in triplicate wells.” left out, “Observations on Candida albicans and Candida krusei were made in the same way, but the incubation temperature was 37° C. and the incubation time was 48 h.” left out, “reading.” for “reading. Malassezia furfur grows poorly in the system described above, so for this organism, a standard inoculum of M. furfur was mixed with an equal volume of a solution of esculetin and the mixture was plated onto Petri dishes containing Sabouraud's agar medium.”

[10] = tested on: Curvularia spp.; experiment: Sensitivity of other fungal isolates of pathogenic fungi to esculetin; format: cell-based; parameters: key to Sensitive (S) or Resistant (R): Sensitive (S); Resistant (R); details: 1 strain tested
Method: as §1, §2, §3, §4

[11] = tested on: Fusarium spp.; experiment: as above; format: cell-based; parameters: key to Sensitive (S) or Resistant (R): Sensitive (S); Resistant (R); details: 15 strains tested
Method: as §1, §2, §3, §4

[12] = tested on: Aspergillus fumigatus; experiment: as above; format: cell-based; parameters: key to Sensitive (S) or Resistant (R): Sensitive (S); Resistant (R); details: 1 strain tested
Method: as §1, §2, §3, §4

[13] = tested on: Alternaria spp.; experiment: as above; format: cell-based; parameters: key to Sensitive (S) or Resistant (R): Sensitive (S); Resistant (R); details: 1 strain tested
Method: as §1, §2, §3, §4

[14] = tested on: Scopulariopsis brevicaulis; experiment: as above; format: cell-based; parameters: key to Sensitive (S) or Resistant (R): Sensitive (S); Resistant (R); details: 4 strains tested
Method: as §1, §2, §3, §4

[15] = tested on: Candida albicans, Cryptococcus neoformans, Saccharomyces cerevisiae and Aspergillus niger; details: Sardari et al, Bioorg. Med. Chem. 7, 1999; cited from earlier work
[16] = tested on: T. rubrum strain 1072; experiment: Sensitivity of clinical isolates of dermatophytes to esculetin; format: cell-based, Trichophyton rubrum; parameters: key to Sensitive (S) or Resistant (R): Sensitive (S); Resistant (R); details: T. rubrum strain 1072, 3 tested
Method: as §1, §5, §6

[17] = tested on: T. tonsurans; experiment: as above; format: cell-based, Trichophyton tonsurans; parameters: key to Sensitive (S) or Resistant (R): Sensitive (S); Resistant (R); details: 2 strains tested
Method: as §1, §5, §6

## Cc1cc(=O)oc2cc(O)c(O)cc12 [4 methyl esculetin]
[1]
  MIC: 1000 µM (≈ 192 µg/mL)

## O=c1ccc2ccc(O)c(O)c2o1 [Daphnetin, 7,8-dihydroxycoumarin]
[2]; DMSO present for the stated solubility in RPMI 1640
  DMSO Concentration: 0.1 % v/v
[2]
  solubility: 5000 µM
[3]
  MIC: 250 µM (≈ 44.5 µg/mL)
[1]; Trichophyton rubrum, read-out: MIC
  MIC: 500 µM (≈ 89.1 µg/mL)

## O=c1ccc2cc(O)c(O)cc2o1 [Esculetin, 6,7 dihydroxycoumarin]
[4]
  MIC esculetin, range in mM: 0.31 ± 0.27 mM (≈ 55.2 µg/mL)
  Sensitive (S) or Resistant (R): S
[5]
  MIC esculetin, range in mM: ≧2 mM
  Sensitive (S) or Resistant (R): R
[6]
  MIC esculetin, range in mM: ≧2 mM
  Sensitive (S) or Resistant (R): R
[7]
  MIC esculetin, range in mM: 1.1 ± 0.5 mM (≈ 196 µg/mL)
  Sensitive (S) or Resistant (R): S
[8]
  MIC esculetin, range in mM: 1.0 ± 0.58 mM (≈ 178 µg/mL)
  Sensitive (S) or Resistant (R): S
[9]
  MIC esculetin, range in mM: 0.54 ± 0.37 mM (≈ 96.2 µg/mL)
  Sensitive (S) or Resistant (R): S
[2]; RPMI 1640 medium with DMSO co-solvent
  solubility: 5000 µM
[2]; pH 7
  DMSO Concentration: 0.1 % v/v
[1]; FIG. 3
  antifungal effect versus T. rubrum NCPF118: dose-dependent antifungal effect
[10]
  Sensitive (S) or Resistant (R): R
[10]; Curvularia
  MIC: ≥ 2000 µM
[11]
  Sensitive (S) or Resistant (R): R
[11]; Fusarium
  MIC: ≥ 2000 µM
[12]
  Sensitive (S) or Resistant (R): R
[12]; Aspergillus fumigatus
  MIC: ≥ 2000 µM
[13]
  Sensitive (S) or Resistant (R): S
[13]; Alternaria
  MIC: 1000 µM (≈ 178 µg/mL)
[14]
  Sensitive (S) or Resistant (R): R
[14]; Scopulariopsis brevicaulis
  MIC: ≥ 2000 µM
[15]
  antifungal activity against the fungi tested: minimal antifungal activity
[16]
  MIC esculetin, range in mM: ≧2 mM
  Sensitive (S) or Resistant (R): R
[17]
  MIC esculetin, range in mM: 0.25 ± 0.18 mM (≈ 44.5 µg/mL)
  Sensitive (S) or Resistant (R): S
